{
  "source": "patent US11065194B2",
  "about": "“Cosmetic use of extracts of Salvia miltiorrhiza roots, special extracts of Salvia miltiorrhiza roots and cosmetic compositions containing such extracts” (SOCIETE INDUSTRIELLE LIMOUSINE D'APPLICATION BIOLOGIQUE, priority 2018, dated 2021)",
  "key": {"COX-2": {"system": "COX-2", "assay": "Synthesis of COX-2 on SILABSKIN REs treated with fine particles (PM), immunohistochemistry", "type": "cell-based, human", "conditions": "tested at 1 μM", "source_text": "The purpose of this study is to evaluate the capacity of an extract of Salvia miltiorrhiza roots to limit the synthesis of cyclo-oxygenase 2 (COX-2) in the event of an inflammation caused by a pollutant (fine particles: PM).\nThe expression of COX-2 has been evaluated by immunohistochemistry on SILABSKIN® REs subjected to repeated treatments with fine particles (PM) in order to mimic a polluted environment.\nHuman keratinocytes were cultivated in a specific culture medium • D0: • Normal human keratinocytes were seeded on inserts then incubated at 37° C. in an atmosphere containing 5% CO2. • D2 to D13: • The culture medium was changed every 2 days. • D14 and D15, treatments of SILABSKIN® REs: • SILABSKIN® REs were treated topically with a solution of fine particles (PM), with or without the presence of the extract of Example 1 at 0.25% (V/V), or with capsazepine at […]. • D16: • The SILABSKIN® REs were recovered, fixed, dehydrated and embedded in paraffin. Sections (4 μm) were then cut using a microtome (RM2125RT, Leica).\nB. Analysis of the Expression of COX-2 by Immunohistochemical Marking • Removal of paraffin with xylene • Unmasking the antigenic sites • Saturation • Primary antibody: rabbit monoclonal anti-COX-2 antibody • Secondary antibody: coupled Alexa Fluor® 488 […] antibody\nThe expression of COX-2 was proportional to the intensity of the green fluorescence present on the SILABSKIN® REs. A quantitative analysis of the images was performed with the aid of Matlab® version R2012b (MathWorks) software. The results were expressed in arbitrary units (UA)."}, "[1]": {"biological_target": "T1, TRPV1 receptors of human sensory neurons (Homo sapiens, UniProt Q8NER1)", "T1 construct": "endogenous in cells; host or cells: human sensory neurons derived from hiPS cells, in co-culture with normal human keratinocytes", "T1 sequence (Q8NER1 whole entry)": "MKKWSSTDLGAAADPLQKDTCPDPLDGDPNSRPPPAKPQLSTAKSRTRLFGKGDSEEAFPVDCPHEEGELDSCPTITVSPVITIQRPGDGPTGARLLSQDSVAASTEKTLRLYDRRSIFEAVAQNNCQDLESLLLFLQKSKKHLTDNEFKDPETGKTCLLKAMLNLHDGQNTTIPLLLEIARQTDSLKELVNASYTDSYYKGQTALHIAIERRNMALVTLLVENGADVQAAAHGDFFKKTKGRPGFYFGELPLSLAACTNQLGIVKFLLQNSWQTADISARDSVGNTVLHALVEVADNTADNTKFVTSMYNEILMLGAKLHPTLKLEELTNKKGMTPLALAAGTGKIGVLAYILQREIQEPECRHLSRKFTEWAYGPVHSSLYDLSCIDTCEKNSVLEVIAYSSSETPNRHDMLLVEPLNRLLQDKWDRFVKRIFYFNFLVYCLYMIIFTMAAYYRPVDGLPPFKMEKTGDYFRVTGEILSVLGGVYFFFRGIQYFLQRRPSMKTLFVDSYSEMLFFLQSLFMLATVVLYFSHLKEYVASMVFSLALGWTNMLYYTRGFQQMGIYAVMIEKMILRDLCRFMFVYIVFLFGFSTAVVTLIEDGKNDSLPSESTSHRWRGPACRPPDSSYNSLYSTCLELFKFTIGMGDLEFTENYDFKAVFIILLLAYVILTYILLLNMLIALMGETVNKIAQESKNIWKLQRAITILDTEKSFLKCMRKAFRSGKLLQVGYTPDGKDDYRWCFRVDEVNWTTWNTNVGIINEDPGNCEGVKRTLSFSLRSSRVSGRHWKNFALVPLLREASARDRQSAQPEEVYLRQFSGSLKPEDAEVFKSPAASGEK", "assay": "Inhibition of TRPV1 receptors of sensory neurons activated by capsaicin (cytoplasmic calcium, Fluo-4 probe)", "type": "cell-based", "conditions": "tested at 10 μM", "procedure": "The aim of this study is to evaluate the capacity of an extract of Salvia miltiorrhiza roots to inhibit the activity of TRPV1 (Transient receptor potential vanilloid 1) receptors of human sensory neurons that play a major role in the detection and transmission of sensations of pain and itching to the central nervous system.\nThis study was performed on a model of human sensory neurons derived from hiPS cells (human-induced Pluripotent Stem Cells) in co-culture with human keratinocytes. The activation of TRPV1 receptors is characterized by a massive entry of calcium into the cytoplasm of the sensory neurons that can be captured by a fluorescent probe and analyzed by epifluorescence microscopy.\nThe operating protocol is described below: • D0, culture of sensory neurons derived from hiPS cells: • The hiPS (human-induced Pluripotent Stem) cells are seeded in a culture medium and incubated at 37° C. • D14, placed in co-culture with normal human keratinocytes: • Some human keratinocytes are seeded onto the carpet of sensory neurons. […] This entry of calcium is captured by the Fluo-4 probe, causing an increase in the level of fluorescence in the neurons. The greater the increase in the level of fluorescence, the more the TRPV1 receptors are activated.\nThe average of the increase in the level of fluorescence was compared in percentage terms to the non-activated control condition."}, "PGE2": {"system": "PGE2", "assay": "Secretion of PGE2 by human keratinocytes treated with fine particles (PM), ELISA", "type": "cell-based", "conditions": "tested at 0.5 μM", "procedure": "The purpose of this study is to evaluate the capacity of an extract of Salvia miltiorrhiza roots to limit the secretion of prostaglandins E2 (PGE2) in the event of an inflammation caused by a pollutant (fine particles: PM).\nThis study was performed by ELISA assay on the culture supernatant of human keratinocytes subjected to a treatment with fine particles (PM) mimicking a polluted environment.\nThe operating protocol of the study is described below. • D0:\nNormal human keratinocytes were seeded in a culture medium and incubated at 37° C. in an atmosphere containing 5% CO2. • D2: • Pre-treatment:\nThe keratinocytes were pretreated with or without the extract of Example 1 at 0.025% and 0.05% (V/V) or with capsazepine at 0.5 μM (inhibitor of TRPV1). The cells were then incubated for 30 minutes at 37° C. in an atmosphere containing 5% CO2. • Treatment with fine particles (PM):\nThe keratinocytes were treated with a solution of particles.\nThe cells were then incubated for 24 hours at 37° C. in an atmosphere containing 5% CO2. • D3, recovery of supernatants:\nThe culture supernatants were recovered and the PGE2s were assayed using an ELISA Kit (Enzo Life Sciences).\nThe test of Study II.2 on the secretion of PGE2 was performed on the extract and on Fraction A."}},
  "note": "Marks after values point to notes of the source that are not given here.",
  "data": [
    {"smiles": "Oc1cc2c(cc1O)CN(C(=S)NCCc1ccc(Cl)cc1)CCC2", "note": "[Capsazepine, capsazepine]", "values": [
      {"measurement": "Inhibition of the PM-caused increase in expression of COX-2", "setting": "COX-2", "value": 38, "unit": "%"},
      {"measurement": "Synthesis of COX-2/polluted control", "setting": "COX-2", "value": "−38", "unit": "%"},
      {"measurement": "Synthesis of COX-2", "setting": "COX-2; polluted SILABSKIN REs (PM)", "value": "659* ×10^3 UA"},
      {"measurement": "inhibition at 10 µM", "setting": "[1]; capsaicin 10 μM, read-out: Inhibition of TRPV1 receptors/activated control neurons", "value": 199, "unit": "%"},
      {"measurement": "Mobilization of cytoplasmic calcium", "setting": "[1]; neurons activated by capsaicin 10 μM, non-activated control = 100", "value": "131*** %"},
      {"measurement": "inhibition at 0.5 µM", "setting": "PGE2; Homo sapiens, Keratinocyte, read-out: Inhibition of the PM-caused increase in secretion of PGE2", "value": 78, "unit": "%"},
      {"measurement": "PGE2 Content/PM-treated control", "setting": "PGE2", "value": "−78", "unit": "%"},
      {"measurement": "PGE2 Content", "setting": "PGE2; keratinocytes treated with PMs", "value": "433* pg/mg of proteins"}
    ]}
  ]
}
